{"source": "patent US20100203159A1", "about": "“METAL COMPONENT […] IN PLANT” (COSMO OIL CO., LTD., priority 2007, published 2010)", "key": {"spinach": {"system": "spinach", "test": "Metal absorption-enhancing effect in spinach by daily spraying, metal content in dry weight by ICP", "type": "in vivo", "procedure": "Two containers were provided and soil was placed in each of them, in which seeds of spinach were uniformly planted. From the day when the seeds were planted, water was applied once a day by means of a sprinkling can. To one of the container, tap water in which 5-aminolevulinic acid hydrochloride was dissolved in a concentration of 1 ppm was sprayed once a day in an amount of about 50 mL by means of a sprayer. Thinning was performed 3 weeks after the seed planting, and harvest was performed on the two containers after 38 days. At the harvest, the upper portions from the ground were cut out and the plant bodies were subjected to natural drying. After drying, the plant bodies was ground one by one in a mortar, the calcium content in dry weight was measured by ICP, and the concentration was calculated.\nSimilar operations were performed as in Example 1 and the manganese concentration in spinach was calculated.\nSimilar operations were performed as in Example 1 and the iron concentration in spinach was calculated.\nSimilar operations were performed as in Example 1 and the copper concentration in spinach was calculated.\nSimilar operations were performed as in Example 1 and the zinc concentration in spinach was calculated."}, "potato": {"system": "potato", "test": "Metal absorption-enhancing effect in potato tubers by foliage treatment, metal analysis", "type": "in vivo", "details": "foliage treatment 1 ppm, from 30th day, then 8 times every other week, tubers harvested 105th day", "procedure": "A seed tuber of potato was subjected to light-exposure and sprout-growth to stimulate germination. The germinated potato was planted in a pot of 1/20000×10 are in an amount of 1 tuber per pot. On 30th day after the planting (height of terrestrial portion: about 30 cm), 5-Aminolevulinic Acid hydrochloride was dissolved in a developing agent-diluted (2000 times) liquid in a concentration of 0 or 1 ppm and was applied to foliage treatment. Thereafter, the foliage treatment was performed 8 times every other week. The number of pots was 3 pots per test plot and new sprouts were removed while a strong thick sprout was left so that the number of sprout per pot was 1. On 105th day after the planting, potato as tubers was harvested and the tubers were selected from each test plot so that the total weight was 120±10 g. Then, they were pared and completely dried at 50° C. for two nights. Thereafter, they are pulverized and mixed in a mixer and then […] metal analysis was performed.\nSimilar operations were performed as in Example 14 and the magnesium concentration in potato was analyzed."}, "radish": {"system": "radish", "test": "Metal absorption-enhancing effect in radish by foliage treatment, metal analysis", "type": "in vivo", "details": "foliage treatment 1 or 10 ppm, 100 L per 10 are, together with DTPA iron and magnesium sulfate, harvest 25th day", "text": "Radish was sowed in a pot of 1/57000×10 are in an amount of 6 seeds per pot and grown. An andosol (Kuroboku-soil) was used as soil and watering was suitably performed. On 11th day after the seeding (a two true leaves-developed stage), a solution containing 5-aminolevulinic acid hydrochloride prepared to a concentration of 0, 1, or 10 ppm in a developing agent-diluted (2000 times) liquid was applied to foliage treatment. Moreover, on this occasion, DTPA iron and magnesium sulfate were transformed into solutions having a concentration of 1.8 and 4.5 ppm in terms of Fe and MgO, respectively, and were applied to foliage treatment together with 5-aminolevulinic acid hydrochloride. The amount used for the treatment was 100 L per 10 are. The number of pots was 5 pots per test plot. On 15th day and 20th day after the seeding, thinning was performed and the number of plants per pot was adjusted to 4 individuals. On 25th day after the seeding, the plants were harvested and completely dried at 50° C. for two nights. Thereafter, they are pulverized and mixed in a mixer and then IPC metal analysis was performed.\nSimilar operations were performed as in Example and the zinc concentration in radish was analyzed."}, "barley [1]": {"system": "barley", "test": "Metal absorption-enhancing effect in barley hydroponics (water culture medium A), ICP metal analysis", "type": "in vivo, Barley (race: Fiber snow)", "details": "for calcium content-enhancing effect in barley: FIG. 1; for zinc content-enhancing effect in barley: FIG. 5; for copper content-enhancing effect in barley: FIG. 4; for manganese content-enhancing effect in barley: FIG. 2; for iron content-enhancing effect in barley: FIG. 3", "procedure": "Barley (race: Fiber snow) was seeded on river sand, sprouted, and grown for 9 days. After the growth, the sand was washed out with caring so as not to hurt roots and the roots were cut so as to adjust the length to 2 cm. The roots were immersed in a water culture medium A and hydroponics was performed.\nAs water culture media, one in which no 5-aminolevulinic acid was dissolved and those in which the compound was dissolved so that each one has a concentration of 0.1, 0.3, or 1 ppm were prepared. The water culture medium was replaced 13 days after the start of the hydroponics, and hydroponics was continued for another 6 days. After the hydroponics, the plant was dried at 50° C. for two nights and then was subjected to ICP metal analysis.\nSimilar operations were performed as in Example 6 except that the concentration of the added 5-aminolevulinic acid was adjusted to 0, 0.3, or 1 ppm and the manganese concentration in barley was analyzed.\nSimilar operations were performed as in Example 6 except that the composition of the water culture medium was changed to twofold concentration of the water culture medium A and the concentration of the added 5-aminolevulinic acid was adjusted to 0, 1, or 3 ppm, and then the iron concentration in barley was analyzed.\nSimilar operations were performed as in Example 6 except that the water culture medium A and a water culture medium having a composition which was twice the composition of the water culture medium A were used and the concentration of the added 5-aminolevulinic acid was adjusted to 0, 0.1, or 0.3 ppm, and then the copper concentration in barley was analyzed. The results are shown in FIG. 4 (left one in the figure is for the water culture medium A and right one is for twofold concentration of the water culture medium A).\nSimilar operations were performed as in Example 6 except that the concentration of the added 5-aminolevulinic acid was adjusted to 0, 0.1, or 0.3 ppm, and the zinc concentration in barley was analyzed.\nSimilar operations were performed as in Example 6 except that the concentration of the added 5-aminolevulinic acid was adjusted to 0, 0.1, 0.3, 1, or 3 ppm, and the manganese concentration in barley was analyzed.\nSimilar operations were performed as in Example 6 except that the concentration of the added 5-aminolevulinic acid was adjusted to 0 or 30 ppm, and the calcium concentration in barley was analyzed.\nSimilar operations were performed as in Example 6 except that the concentration of the added 5-aminolevulinic acid was adjusted to 0 or 30 ppm, and the manganese concentration in barley was analyzed.\nSimilar operations were performed as in Example 6 except that the concentration of the added 5-aminolevulinic acid was adjusted to 0 or 30 ppm and the iron concentration in barley was analyzed.\nSimilar operations were performed as in Example 6 except that the concentration of the added 5-aminolevulinic acid was adjusted to 0 or 30 ppm, and the copper concentration in barley was analyzed.\nSimilar operations were performed as in Example 6 except that the concentration of the added 5-aminolevulinic acid was adjusted to 0 or 30 ppm, and the zinc concentration in barley was analyzed.\nSimilar operations were performed as in Example 6 except that the concentration of the added 5-aminolevulinic acid was adjusted to 0 or 30 ppm and the magnesium concentration in barley was analyzed."}, "barley [2]": {"system": "barley", "test": "Metal absorption-enhancing effect in barley hydroponics (water culture medium A), ICP metal analysis", "type": "in vivo, Barley (race: Fiber snow)", "details": "0.1, 0.3, 1, or 3 ppm in water culture medium A; FIG. 6"}}}
{"smiles": "Cl.NCC(=O)CCC(=O)O", "note": "[5-aminolevulinic acid hydrochloride]", "values": [{"measurement": "Average value of calcium concentration in spinach", "setting": "spinach; 1 ppm in tap water sprayed once a day, about 50 mL, harvest after 38 days, dry weight, n = 18, no-ALA control 0.61", "result": 0.68, "unit": "%"}, {"measurement": "Average value of iron concentration in spinach", "setting": "spinach; 1 ppm sprayed once a day, harvest after 38 days, dry weight, n = 18, no-ALA control 0.015", "result": 0.049, "unit": "%"}, {"measurement": "Average value of copper concentration in spinach", "setting": "spinach; 1 ppm sprayed once a day, harvest after 38 days, dry weight, n = 18, no-ALA control 0.023", "result": 0.029, "unit": "%"}, {"measurement": "Average value of manganese concentration in spinach", "setting": "spinach; 1 ppm sprayed once a day, harvest after 38 days, dry weight, n = 18, no-ALA control 0.027", "result": 0.031, "unit": "%"}, {"measurement": "Average value of zinc concentration in spinach", "setting": "spinach; 1 ppm sprayed once a day, harvest after 38 days, dry weight, n = 18, no-ALA control 0.033", "result": 0.048, "unit": "%"}, {"measurement": "calcium content-enhancing effect in spinach", "setting": "spinach; spraying, 1 ppm once a day", "result": "calcium content-enhancing effect was observed"}, {"measurement": "copper content-enhancing effect in spinach", "setting": "spinach; spraying, 1 ppm once a day", "result": "copper content-enhancing effect was observed"}, {"measurement": "iron content-enhancing effect in spinach", "setting": "spinach; spraying, 1 ppm once a day", "result": "iron content-enhancing effect was observed"}, {"measurement": "manganese content-enhancing effect in spinach", "setting": "spinach; spraying, 1 ppm once a day", "result": "manganese content-enhancing effect was observed"}, {"measurement": "zinc content-enhancing effect in spinach", "setting": "spinach; spraying, 1 ppm once a day", "result": "zinc content-enhancing effect was observed"}, {"measurement": "iron content-enhancing effect in potato", "setting": "potato; FIG. 9", "result": "iron content-enhancing effect was observed"}, {"measurement": "magnesium content-enhancing effect in potato", "setting": "potato; FIG. 10", "result": "magnesium content-enhancing effect was observed"}, {"measurement": "manganese content-enhancing effect in radish", "setting": "radish; FIG. 7", "result": "manganese content-enhancing effect was observed"}, {"measurement": "zinc content-enhancing effect in radish", "setting": "radish; FIG. 8", "result": "zinc content-enhancing effect was observed"}, {"measurement": "calcium content-enhancing effect in barley", "setting": "barley [1]; 0.1, 0.3, or 1 ppm in water culture medium A", "result": "calcium content-enhancing effect was observed"}, {"measurement": "zinc content-enhancing effect in barley", "setting": "barley [1]; 0.1 or 0.3 ppm in water culture medium A", "result": "zinc content-enhancing effect was observed"}, {"measurement": "copper content-enhancing effect in barley", "setting": "barley [1]; 0.1 or 0.3 ppm, water culture medium A and twofold concentration of medium A", "result": "copper content-enhancing effect was observed"}, {"measurement": "manganese content-enhancing effect in barley", "setting": "barley [1]; 0.3 or 1 ppm in water culture medium A", "result": "manganese content-enhancing effect was observed"}, {"measurement": "iron content-enhancing effect in barley", "setting": "barley [1]; 1 or 3 ppm, twofold concentration of water culture medium A", "result": "iron content-enhancing effect was observed"}, {"measurement": "calcium content-enhancing effect in barley", "setting": "barley [1]; 30 ppm in water culture medium, Comparative Example 1", "result": "calcium content-enhancing effect was not observed"}, {"measurement": "manganese content-enhancing effect in barley", "setting": "barley [1]; 30 ppm in water culture medium, Comparative Example 2", "result": "manganese content-enhancing effect was not observed"}, {"measurement": "iron content-enhancing effect in barley", "setting": "barley [1]; 30 ppm in water culture medium, Comparative Example 3", "result": "iron content-enhancing effect was not observed"}, {"measurement": "copper content-enhancing effect in barley", "setting": "barley [1]; 30 ppm in water culture medium, Comparative Example 4", "result": "copper content-enhancing effect was not observed"}, {"measurement": "zinc content-enhancing effect in barley", "setting": "barley [1]; 30 ppm in water culture medium, Comparative Example 5", "result": "zinc content-enhancing effect was not observed"}, {"measurement": "magnesium content-enhancing effect in barley", "setting": "barley [1]; 30 ppm in water culture medium, Comparative Example 6, FIG. 6", "result": "magnesium content-enhancing effect was not observed"}, {"measurement": "magnesium content-enhancing effect in barley", "setting": "barley [2]", "result": "magnesium content-enhancing effect was observed"}]}
